Laboratory results taken from patent US7943606B2, “Compositions and methods to control abnormal cell growth” (CanCure Laboratories, LLC, priority 2005, dated 2011).
Structures can show the parent of a compound that is named as a salt.

Assays:
[1] = tested on: A-431 cells; test: Viability of A-431 epidermoid adenocarcinoma cells (MTT assay); format: cell-based, human; details: for inhibition at 100 µM: Homo sapiens, A-431, similar comparative study (100 μM, 72 hours), read-out: inhibition of proliferation, A-431
Description: (§1) To quantify cell death, around the time when significant and characteristic morphological changes took place, cells were pulse-labeled for 10 minutes with [^3H]thymidine to measure DNA activity as described elsewhere [Tomono, M. and Kiss, Z. (1995), “Ethanol enhances the stimulatory effects of insulin and insulin-like growth factor-I on DNA synthesis in NIH 3T3 fibroblasts,” Biochem. Biophys. Res. Commun. 208, 63-67]. Also, cells were collected as suspensions using trypsin, an established method in cell biology, followed by re-plating of cells in fresh tissue culture medium. If no viable cells were obtained after one week in culture, it meant that the cells at the time of re-plating were dead. Survival values obtained with untreated cells were considered 100%. For the determination of relative number of viable cells after treatments, in most cases the MTT assay was used. This calorimetric assay is based on the ability of living cells, but not dead cells, to reduce 3-(4,5-dimethyl thiazol-2-yl)-2,5-diphenyltetrazolium bromide [Carmichael, J, De Graff, W. G., Gazdar, A. F., Minna, J. D. and Mitchell, J. B. (1987), “Evaluation of tetrazolium-based semi-automated calorimetric assay: Assessment of chemosensitivity testing,” Cancer Res. 47, 936-942]. For this assay, cells were plated in 96-well plates, and the MTT assay was performed both in untreated and treated cell cultures. The MTT assay also was performed at the start of treatments to allow assessment of proliferation rates in the control and treated cell cultures.
(§2) The NIH 3T3 (normal) mouse fibroblast, A431 human epidermoid adenocarcinoma, and MCF-7 human breast cancer cells were cultured in DMEM medium containing 10% FBS. The MEL-28 human melanoma cells were cultured in MEM medium containing 10% FBS. The HT-29 human colon adenocarcinoma cells were cultured in McCoy's 5a medium containing 10% FBS. The A549 human lung carcinoma cells were maintained in Ham's F12K medium containing 10% FBS. Cells were seeded into 96-well plates and treated at ˜70-90% confluency. Two hours before treatments the medium was changed for fresh 10% serum medium, and then the cells were incubated for 72 hours in the presence of 0-200 μM of CCompound1 (●) or CCompound3 (CCDTHT) (▴), as indicated. The MTT assay was used to determine cell viability after treatments. The values, shown in FIGS. 5A-5F and expressed as percent decrease in viability compared to the untreated control cells, are the mean±std. dev. of 8 incubations in one experiment. Similar results were obtained in another experiment.
(§3) NIH3T3, T47D, A-431, HT-29, and MEL-28 cells were cultured as indicated earlier. CaOV-3 human ovarian cancer cells were cultured in DMEM containing 10% FBS. ZR-75-1 human estrogen receptor-positive breast cancer cells were maintained in RPMI 1640 medium supplemented with 10% FBS. HTB-157 human fetal fibroblasts, MEL-24 human malignant melanoma cells, Hep G2 human hepatoblastoma cells, and CaCO-2 human colon adenocarcinoma cells were maintained in Eagles's MEM containing 10% FBS. MB-231 human estrogen receptor-negative breast cancer cells were maintained in Leibovitz's L-15 medium supplemented with 10% FBS. Cells were seeded into 96-well plates and treated at ˜70-90% confluency. Two hours prior to treatments the medium was changed for fresh 10% serum medium, and then the cells were incubated for 10 days in the absence (□) or presence of 50 μM CCDTHT ? or 100 μM CCDTHT (▪). The medium was changed and the cells were re-treated on days 3 and 6. The MTT assay was used to determine cell viability on day 10. The data, shown in FIG. 6, are the mean±std. dev. of 8 incubations in one experiment. (The experiment was repeated twice with similar results).
NIH 3T3, MEL-28, MEL-24, CaOV-3, ZR-75-1, and T47D cells were cultured as described above. The OVCAR human ovarian cancer cells were cultured in DMEM containing 10% FBS. Cells were seeded into 96-well plates and used at ˜60-80% confluency. […]

[2] = tested on: MCF-7 cells; test: Viability of MCF-7 breast cancer cells; format: cell-based, human
Description: as §1
About 50% confluent cultures of MCF-7 cells, cultured in 12-well plates in Dulbecco's modified Eagle's medium (DMEM) supplemented with 10% FBS, were either untreated (FIG. 3A), or were treated with 100 μM CCDTHT (CCompound3) for 72 hours (FIG. 3B). […] This experiment was repeated three times with similar results. In some experiments, cells from the CCDTHT-treated cultures were seeded into 96-well plates, and the MTT assay was performed 96 hours later to test for viable cells.
as §2
NIH 3T3, AN3CA, HT-29, MEL-28, and MCF-7 cells were cultured as described earlier. Cells were seeded into 96-well plates; when cells were ˜80-90% confluent, the medium was changed for fresh 10% serum-containing medium, followed by incubations for 72 hours in the absence (□) or presence of 100 μM CCDTHT ? , 2 mM ethanolamine (Etn) ? , or 100 μM CCDTHT+2 mM Etn (▪). The MTT assay was used to determine cell viability. […]

[3] = tested on: MB-231 cells; test: Viability of MB-231 breast cancer cells (MTT assay); format: cell-based, human
Description: To quantify cell death, around the time when significant and characteristic morphological changes took place, cells were pulse-labeled for 10 minutes with [^3H]thymidine to measure DNA activity as described elsewhere [Tomono, M. and Kiss, Z. (1995), “Ethanol enhances the stimulatory effects of insulin and insulin-like growth factor-I on DNA synthesis in NIH 3T3 fibroblasts,” Biochem. Biophys. Res. Commun. 208, 63-67]. Also, cells were collected as suspensions using trypsin, an established method in cell biology, followed by re-plating of cells in fresh tissue culture medium. If no viable cells were obtained after one week in culture, it meant that the cells at the time of re-plating were dead. Survival values obtained with untreated cells were considered 100%. For the determination of relative number of viable cells after treatments, in most cases the MTT assay was used. […]
(§4) NIH 3T3, MEL-28, MEL-24, CaOV-3, ZR-75-1, and T47D cells were cultured as described above. […] The inhibitory effects of CC compounds on cell proliferation are expressed as percent decrease compared to untreated cell cultures (the greater the number, the greater the inhibitory effect of the CC compound). […]

[4] = tested on: HT-29 cells; test: Viability of HT-29 colon adenocarcinoma cells (MTT assay); format: cell-based, human; details: for inhibition at 100 µM: HT-29, similar comparative study (100 μM, 72 hours), read-out: inhibition of proliferation, HT-29
Description: as §1, §2
as §3, with “The MTT assay was used to determine cell viability on day 10. The data, shown in FIG. 6, are the mean±std. dev. of 8 incubations in one experiment. (The experiment was repeated twice with similar results).” left out

[5] = tested on: A549 cells; test: Viability of A549 lung carcinoma cells (MTT assay); format: cell-based, human
Description: To quantify cell death, around the time when significant and characteristic morphological changes took place, cells were pulse-labeled for 10 minutes with [^3H]thymidine to measure DNA activity as described elsewhere [Tomono, M. and Kiss, Z. (1995), “Ethanol enhances the stimulatory effects of insulin and insulin-like growth factor-I on DNA synthesis in NIH 3T3 fibroblasts,” Biochem. Biophys. Res. Commun. 208, 63-67]. Also, cells were collected as suspensions using trypsin, an established method in cell biology, followed by re-plating of cells in fresh tissue culture medium. If no viable cells were obtained after one week in culture, it meant that the cells at the time of re-plating were dead. […]
The NIH 3T3 (normal) mouse fibroblast, A431 human epidermoid adenocarcinoma, and MCF-7 human breast cancer cells were cultured in DMEM medium containing 10% FBS. […] The values, shown in FIGS. 5A-5F and expressed as percent decrease in viability compared to the untreated control cells, are the mean±std. dev. of 8 incubations in one experiment. […]
as §4

[6] = tested on: ZR-75-1 cells; test: Viability of ZR-75-1 breast cancer cells (MTT assay); format: cell-based, human; details: for inhibition at 100 µM: Homo sapiens, ZR-75-1, 72 hours, read-out: Decrease in cell number (maximal decrease = 100%), ZR-75-1
Description: as §1, §3
NIH 3T3, MEL-28, MEL-24, CaOV-3, ZR-75-1, and T47D cells were cultured as described above. The OVCAR human ovarian cancer cells were cultured in DMEM containing 10% FBS. Cells were seeded into 96-well plates and used at ˜60-80% confluency. Two hours before treatments the medium was changed for fresh 10% serum medium, and then the cells were incubated for 72 hours in the absence or presence of 100 μM of each of CC compounds as listed in TABLE 3. The inhibitory effects of CC compounds on cell proliferation are expressed as percent decrease compared to untreated cell cultures (the greater the number, the greater the inhibitory effect of the CC compound). […] Also, for the treatment of ovarian cancer and breast cancer, CCDTHT seems to be the best choice (although in this experiment CCompounds21-26 were not tested).

[7] = tested on: PC-3 cells; test: Proliferation of PC-3 prostate cancer cells; format: cell-based; details: Homo sapiens, similar comparative study (100 μM, 72 hours)

For `CC[N+](C)(CC)CCOCc1ccc2sc3ccccc3c(=O)c2c1.[I-]` [CCDTHT, N,N-diethyl-N-methyl-2-[(9-oxo-9H-thioxanthen-2-yl)methoxy]-ethanaminium iodide], the “decrease in viability, A-431” value ([1]; 0-200 μM, 72 hours, MTT) was “similarly large effects”, the “sensitivity to the inhibitory actions, A-431” value ([1]; 50 and 100 μM, 10 days, MTT) was “very sensitive” and the inhibition at 100 µM [1] was 68 to 74%. The “decrease in viability, MCF-7” value ([2]; 0-200 μM, 72 hours, MTT) was “similarly large effects”, the “viable cells by MTT after re-seeding treated MCF-7 cells” value ([2]; 100 μM 72 hours, re-seeded, MTT 96 hours later) was “did not detect viable cells” and the “morphology / cell death, MCF-7” value ([2]; 100 μM, 72 hours, 12-well plates) was “practically all cells rounded up”. The “sensitivity to the inhibitory actions, MB-231” value ([3]; 50 and 100 μM, 10 days, MTT) was “moderately sensitive”, the “reduction of cell numbers, HT-29, CCDTHT versus CCompound1” value ([4]; 0-200 μM, 72 hours, MTT) was “clearly more effective than CCompound1” and the “decrease in the number of viable cells versus 0.5 mM HC-3, HT-29” value ([4]; 100 μM, 72 hours, MTT) was “much greater decreases in the number of viable cells compared to 0.5 mM HC-3”. For the same molecule, the cytotoxicity at 100 µM ([4]; Homo sapiens, HT-29, 240 h, 100 μM, 10 days, MTT, read-out: reduction in the number of viable cells, HT-29) was at most 50%, the “reduction of cell numbers, A-549, CCDTHT versus CCompound1” value ([5]; 0-200 μM, 72 hours, MTT) was “clearly more effective than CCompound1” and the “sensitivity to the inhibitory actions, ZR-75-1” value ([6]; 50 and 100 μM, 10 days, MTT) was “very sensitive”. For the same molecule, the inhibition at 100 µM [6] was 74% and the inhibition at 100 µM [7] was 54 to 55%.

Molecule `CC[N+](CC)(CC)CCCOCc1ccc2sc3ccccc3c(=O)c2c1` [CCcompound9, N,N,N-Triethyl-3-[(9-oxo-9H-thioxanthen-2-yl)methoxy]-propane-1-aminium iodide] has an inhibition at 100 µM [1] of 68 to 74% and an inhibition at 100 µM [6] of 70%.

`CC[N+](C)(CC)CCCOCc1ccc2sc3ccccc3c(=O)c2c1` [CCcompound10, N,N-Diethyl-N-methyl-3-[(9-oxo-9H-thioxanthen-2-yl)methoxy]-propane-1-aminium iodide] was tested, and the inhibition at 100 µM [6] was 65%.

Work on `CC[N+](C)(C)CCCOCc1ccc2sc3ccccc3c(=O)c2c1` [CCcompound11, N,N-Dimethyl-N-ethyl-3-[(9-oxo-9H-thioxanthen-2-yl)methoxy]-propane-1-aminium iodide] yielded an inhibition at 100 µM ([3]; Homo sapiens, similar comparative study (100 μM, 72 hours), read-out: inhibition of proliferation, MB-231) of 75%, an inhibition at 100 µM ([4]; Homo sapiens) of 63 to 71% and an inhibition at 100 µM ([5]; Homo sapiens, A549, similar comparative study (100 μM, 72 hours), read-out: inhibition of proliferation, A549) of 68%. It also gave an inhibition at 100 µM [6] of 75% and an inhibition at 100 µM [7] of 54 to 55%.

Molecule `CC[NH+](CC)CCCOCc1ccc2sc3ccccc3c(=O)c2c1` [CCcompound12, 2-{[3-(Diethylamino)propoxy]meth-yl}-9H-thioxanthen-9-one hydrochloride] has an inhibition at 100 µM [1] of 68 to 74% and an inhibition at 100 µM [6] of 17%.

With `C[N+](C)(CCO)Cc1ccc2sc3ccccc3c(=O)c2c1` [CCcompound13, 2-Hydroxy-N,N-dimethyl-N-[(9-oxo-9H-thioxanthen-2-yl)methyl]-ethanaminium bromide] the inhibition at 100 µM [6] was 48%.

For `CC[N+](CC)(CCO)Cc1ccc2sc3ccccc3c(=O)c2c1` [CCcompound14, 2-Hydroxy-N,N-Diethyl-N-[(9-oxo-9H-thioxanthen-2-yl)methyl]-ethanaminium bromide], the inhibition at 100 µM ([4]; Homo sapiens) was 63 to 71% and the inhibition at 100 µM [6] was 53%.

For `C[N+](C)(CCCO)Cc1ccc2sc3ccccc3c(=O)c2c1` [CCcompound15, 3-Hydroxy-N,N-dimethyl-N-[(9-oxo-9H-thioxanthen-2-yl)methyl]propane-1-aminium bromide], the inhibition at 100 µM [6] was 41%.

Molecule `CC[N+](CC)(CCCO)Cc1ccc2sc3ccccc3c(=O)c2c1` [CCcompound16, 3-Hydroxy-N,N-diethyl-N-[(9-oxo-9H-thioxanthen-2-yl)methyl]-propane-1-aminium bromide] has an inhibition at 100 µM [6] of 39%.
